# Data from US20220153741A1, “HETEROCYCLIC COMPOUNDS AS INHIBITORS OF KRAS G12C” (Guangdong Newopp Biopharmaceuticals Co., Ltd., priority 2019, published 2022).
# Where two headings read alike, the source gives them in different places.
# Tests used:
# [1] = test system: pERK1/2 in NCI-H358 cells; assay: Phospho-ERK (pERK) assay in NCI-H358 cells; type: cell-based; details: 3 hours compound treatment, pERK1/2 antibody fluorescence
# Procedure: Phospho-ERK (pERK) assay: NCI-H358 cells were seeded in 96-well plates (Greiner) in RPMI-1640 with 10% FBS 16 hours prior to compound treatment. Serial dilution of compounds was made and added to wells, and then incubated at 37° C. for 3 hours. After the treatment, cells were fixed with 3.7% formaldehyde (VWR) for 20 min at RT, followed by being permeabilized with ice-cold methanol at −20° C. for 20 min. The methanol was then dumped and replaced with Intercept® (PBS) Blocking Buffer (LiCOR) supplemented with 0.05% Tween-20 and incubated at RT for 1 hour with gentle rocking. The blocking buffer was then replaced with the blocking buffer containing pERK1/2 antibody (Cell Signaling) and incubated at 4° C. overnight with gentle rocking. The plate was washed 5 times with 1×PBS+0.1% Tween-20. The blocking buffer containing LiCOR IRDye 680RD secondary antibody (LiCOR,) was then added and incubated for 1 hour at RT with gentle rocking. After washing 5 times with 1×PBS+0.1% Tween-20, the plate was read using CLARIOstar plate reader (BMG LABTECH GmbH). IC50 values were determined as the concentration of 50% inhibition of the fluorescence signal compared to DMSO treated cells (A: IC50<0.1 μM; B: IC50 between 0.1 μM and 1 μM; C: IC50 between 1 μM and 10 μM; D: >10 μM; ND: not determined).
# [2] = test system: LS513 (KRAS G12D) cancer cell line; assay: 3D proliferation assay, LS513 (CellTiter-Glo); type: cell-based; details: 96-well spheroid plate, 4 days
# Procedure: (§1) 3D proliferation assay: NCI-H358 (H358, KRAS G12C) and LS513 (KRAS G12D) cancer cell lines were obtained from ATCC (American Type Culture Collection, VA). Cells were plated in 96-well spheroid plate (CORNING INC, NY)) in RPMI-1640 with 10% FBS. Compounds (11-point dilutions) and DMSO were added to the wells and incubated with cells for 4 days at 37° C. Cell viability was then determined by CellTiter-Glo (Promega, WI). IC50 values of compounds were determined as the concentration of 50% inhibition of cell viability compared to DMSO treated cells (A: IC50<0.1 μM; B: IC50 between 0.1 μM and 1 μM; C: IC50 between 1 μM and 10 μM; D: >10 μM; ND: not determined).
# [3] = test system: NCI-H358 (H358, KRAS G12C) cancer cell line; assay: 3D proliferation assay, NCI-H358 (CellTiter-Glo); type: cell-based; details: 96-well spheroid plate, 4 days
# Procedure: as §1
# [4] = amide bond
Compound,"IC50 ([1]; Homo sapiens, NCI-H358, 3 h) [nM]","IC50 ([2]; Homo sapiens, LS-513, 96 h) [nM]","IC50 ([3]; Homo sapiens, NCI-H358, 96 h) [nM]",further results
"C=CC(=O)N1CCN(c2nc(=O)n3c4nc(c(F)cc24)-c2c(F)cccc2NCCCNc2cccc(C(C)C)c2-3)[C@@H](C)C1 [Example 22, (S)-2^4-(4-acryloyl-2-methylpiperazin-1-yl)-2^6,3^6-difluoro-1^6-isopropyl-2^1,2^2-dihydro-4,8-diaza-2(1,7)-pyrido[2,3-d]pyrimidina-1,3(1,2)-dibenzenacyclooctaphan-2^2-one]",100 to 1000,100 to 1000,< 100,–
"C=CC(=O)N1CCN(c2nc(=O)n3c4nc(c(F)cc24)-c2c(F)cccc2NCCSc2ccnc(C(C)C)c2-3)[C@@H](C)C1 [Example 9, (S)-2^4-(4-acryloyl-2-methylpiperazin-1-yl)-2^6,3^6-difluoro-1^2-isopropyl-2^1,2^2-dihydro-7-thia-4-aza-2(1,7)-pyrido[2,3-d]pyrimidina-1(3,4)-pyridina-3(1,2)-benzenacycloheptaphan-2^2-one]",< 100,> 10000,< 100,–
"C=CC(=O)N1CCN(c2nc(=O)n3c4nc(c(F)cc24)-c2c(F)cccc2N(C(=O)C(C)(C)O)CCCc2ccnc(C(C)C)c2-3)[C@@H](C)C1 [Example 15, (S)-2^4-(4-acryloyl-2-methylpiperazin-1-yl)-2^6,3^6-difluoro-4-(2-hydroxy-2-methylpropanoyl)-1^2-isopropyl-2^1,2^2-dihydro-4-aza-2(1,7)-pyrido[2,3-d]pyrimidina-1(3,4)-pyridina-3(1,2)-benzenacycloheptaphan-2^2-one]",100 to 1000,> 10000,100 to 1000,–
"C=CC(=O)N1CCN(c2nc(=O)n3c4nc(c(F)cc24)-c2c(F)cccc2NCCCN(C)c2cccc(C(C)C)c2-3)[C@@H](C)C1 [Example 28, (S)-2^4-(4-acryloyl-2-methylpiperazin-1-yl)-2^6,3^6-difluoro-1^6-isopropyl-8-methyl-2^1,2^2-dihydro-4,8-diaza-2(1,7)-pyrido[2,3-d]pyrimidina-1,3(1,2)-dibenzenacyclooctaphan-2^2-one]",100 to 1000,> 10000,< 100,–
CC(C)c1cccc2c1-n1c(=O)[nH]c(=O)c3cc(F)c(nc31)-c1c(F)cccc1NC(=O)CN2,–,–,–,"ring closure, yield of all isomers ([4]; from CC(C)c1cccc(NCC(=O)O)c1-n1c(=O)[nH]c(=O)c2cc(F)c(-c3c(N)cccc3F)nc21, TCFH/N-methylimidazole/pyridine, MeCN/DMF (1:1), 66.0 mM, 11.0 h): 32.7%"
"(S)-2^4-(4-acryloyl-2-methylpiperazin-1-yl)-2^6,3^6-difluoro-1^2-isopropyl-2^1,2^2-dihydro-8-thia-4-aza-2(1,7)-pyrido[2,3-d]pyrimidina-1(3,4)-pyridina-3(1,2)-benzenacyclooctaphan-2^2-one [Example 8]",–,–,–,IC50 [1]: < 100 nM; IC50 [2]: > 10000 nM; IC50 [3]: < 100 nM
"C=CC(=O)N1C[C@H](C)N(c2nc(=O)n3c4nc(c(F)cc24)-c2c(F)cccc2NCCCc2ccnc(C(C)C)c2-3)C[C@H]1C [Example 7B, 2^4-((2S,5R)-4-acryloyl-2,5-dimethylpiperazin-1-yl)-2^6,3^6-difluoro-1^2-isopropyl-2^1,2^2-dihydro-4-aza-2(1,7)-pyrido[2,3-d]pyrimidina-1(3,4)-pyridina-3(1,2)-benzenacycloheptaphan-2^2-one]",–,–,–,IC50 [1]: < 100 nM; IC50 [2]: > 10000 nM; IC50 [3]: < 100 nM
CC(C)c1nccc2c1-n1c(=O)nc(O)c3cc(F)c(nc31)-c1c(F)cccc1NC(=O)CS2,–,–,–,"ring closure, yield of all isomers ([4]; from CC(C)c1nccc(SCC(=O)OC(C)(C)C)c1-n1c(=O)nc(O)c2cc(F)c(-c3c(N)cccc3F)nc21, TCFH/N-methylimidazole, DMF, 7.2 mM, 25.0 °C, 1.0 h, 2 steps): 44.4%"
"C=CC(=O)N1CCN(c2nc(=O)n3c4nc(c(F)cc24)-c2c(F)cccc2N(C)CCCc2ccnc(C(C)C)c2-3)[C@@H](C)C1 [Example 4, (S)-2^4-(4-acryloyl-2-methylpiperazin-1-yl)-2^6,3^6-difluoro-1^2-isopropyl-4-methyl-2^1,2^2-dihydro-4-aza-2(1,7)-pyrido[2,3-d]pyrimidina-1(3,4)-pyridina-3(1,2)-benzenacycloheptaphan-2^2-one]",< 100,> 10000,< 100,–
CC(C)c1nccc2c1-n1c(=O)nc(O)c3cc(F)c(nc31)-c1c(F)cccc1NC(=O)CC2,–,–,–,"ring closure, yield of all isomers ([4]; from CC(C)c1nccc(CCC(=O)O)c1-n1c(=O)nc(O)c2cc(F)c(-c3c(N)cccc3F)nc21, TCFH/NMI, DMF, 37.0 mM, 25.0 °C, 1.0 h): 46.7%"
CC(C)c1nccc2c1-n1c(=O)[nH]c(=O)c3cc(F)c(nc31)-c1c(F)cccc1NC(=O)CCS2,–,–,–,"ring closure, yield of all isomers ([4]; from CC(C)c1nccc(SCCC(=O)O)c1-n1c(=O)[nH]c(=O)c2cc(F)c(-c3c(N)cccc3F)nc21, T3P, DCE, 58.3 mM, 55.0 °C, 16.0 h): 37.4%"
"C=CC(=O)N1CCN(c2nc(=O)n3c4nc(c(F)cc24)-c2c(F)cccc2NCCCc2cccc(C(C)C)c2-3)[C@@H](C)C1 [Example 17, (S)-2^4-(4-acryloyl-2-methylpiperazin-1-yl)-2^6,3^6-difluoro-1^6-isopropyl-2^1,2^2-dihydro-4-aza-2(1,7)-pyrido[2,3-d]pyrimidina-1,3(1,2)-dibenzenacycloheptaphan-2^2-one]",100 to 1000,1000 to 10000,< 100,–
"C=CC(=O)N1CCN(c2nc(=O)n3c4nc(c(F)cc24)-c2c(F)cccc2NCCCc2ccnc(C(C)C)c2-3)[C@@H](C)C1 (single isomer, unassigned) [Example 2B]",–,–,–,IC50 [1]: 100 to 1000 nM; IC50 [2]: > 10000 nM; IC50 [3]: 100 to 1000 nM

# Now from value to compound, other results behind:
"IC50 ([1]; Homo sapiens, NCI-H358, 3 h) [nM]","IC50 ([2]; Homo sapiens, LS-513, 96 h) [nM]","IC50 ([3]; Homo sapiens, NCI-H358, 96 h) [nM]",Compound,further results
< 100,> 10000,< 100,"C=CC(=O)N1CCN(c2nc(=O)n3c4nc(c(F)cc24)-c2c(Cl)cccc2NCCCc2ccnc(C(C)C)c2-3)[C@@H](C)C1 [Example 10, (S)-2^4-(4-acryloyl-2-methylpiperazin-1-yl)-3^6-chloro-2^6-fluoro-1^2-isopropyl-2^1,2^2-dihydro-4-aza-2(1,7)-pyrido[2,3-d]pyrimidina-1(3,4)-pyridina-3(1,2)-benzenacycloheptaphan-2^2-one]",–
100 to 1000,> 10000,100 to 1000,"C=CC(=O)N1C[C@H](C)N(c2nc(=O)n3c4nc(c(F)cc24)-c2c(F)cccc2NCCCc2ccnc(C(C)C)c2-3)C[C@H]1C [Example 7A, 2^4-((2S,5R)-4-acryloyl-2,5-dimethylpiperazin-1-yl)-2^6,3^6-difluoro-1^2-isopropyl-2^1,2^2-dihydro-4-aza-2(1,7)-pyrido[2,3-d]pyrimidina-1(3,4)-pyridina-3(1,2)-benzenacycloheptaphan-2^2-one]",–
< 100,> 10000,< 100,"C=CC(=O)N1C[C@H](C)N(c2nc(=O)n3c4nc(c(F)cc24)-c2c(F)cccc2NCCCc2cccc(C(C)C)c2-3)C[C@H]1C [Example 20, 2^4-((2S,5R)-4-acryloyl-2,5-dimethylpiperazin-1-yl)-2^6,3^6-difluoro-1^6-isopropyl-2^1,2^2-dihydro-4-aza-2(1,7)-pyrido[2,3-d]pyrimidina-1,3(1,2)-dibenzenacycloheptaphan-2^2-one]",–
100 to 1000,> 10000,< 100,"C=CC(=O)N1CCN(c2nc(=O)n3c4nc(c(F)cc24)-c2c(F)cccc2NC(=O)CCc2ccnc(C(C)C)c2-3)[C@@H](C)C1 [Example 1, (S)-2^4-(4-Acryloyl-2-methylpiperazin-1-yl)-2^6,3^6-difluoro-1^2-isopropyl-2^1,2^2-dihydro-4-aza-2(1,7)-pyrido[2,3-d]pyrimidina-1(3,4)-pyridina-3(1,2)-benzenacycloheptaphane-2^2,5-dione]",–
< 100,–,–,"C=CC(=O)N1CCN(c2nc(=O)n3c4nc(c(F)cc24)-c2c(F)cccc2NCCCc2ccnc(C(C)C)c2-3)[C@@H](C)C1 (single isomer, unassigned) [Example 2A]",IC50 [2]: > 10000 nM; IC50 [3]: < 100 nM
< 100,1000 to 10000,< 100,"C=CC(=O)N1CCN(c2nc(=O)n3c4nc(c(F)cc24)-c2c(F)cccc2N(C)CCCc2cccc(C(C)C)c2-3)[C@@H](C)C1 [Example 19, (S)-2^4-(4-acryloyl-2-methylpiperazin-1-yl)-2^6,3^6-difluoro-1^6-isopropyl-4-methyl-2^1,2^2-dihydro-4-aza-2(1,7)-pyrido[2,3-d]pyrimidina-1,3(1,2)-dibenzenacycloheptaphan-2^2-one]",–
